# Molecular target: Mouse ERK2 protein (Mus musculus (Mouse), UniProt P63085)
# Experiment: Coupled MEK1/ERK2 IMAP assay or Active ERK2 IMAP assay
# Type: biochemical
# Settings: Table 1, class symbols, 30 μM ATP
# Mouse ERK2 protein, sequence (P63085 whole entry): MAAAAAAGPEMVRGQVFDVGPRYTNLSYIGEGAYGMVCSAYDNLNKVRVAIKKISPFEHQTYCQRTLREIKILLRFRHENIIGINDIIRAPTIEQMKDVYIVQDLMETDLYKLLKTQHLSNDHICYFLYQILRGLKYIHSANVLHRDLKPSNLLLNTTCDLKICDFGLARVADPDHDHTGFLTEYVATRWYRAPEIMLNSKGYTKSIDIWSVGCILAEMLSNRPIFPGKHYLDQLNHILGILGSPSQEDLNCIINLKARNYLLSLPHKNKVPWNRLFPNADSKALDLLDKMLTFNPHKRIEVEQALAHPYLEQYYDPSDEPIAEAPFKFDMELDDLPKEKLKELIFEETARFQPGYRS
row,IC50,SMILES
1,< 0.02 µM,"Cc1nc2cc(-c3n[nH]c4c3CN(C(=O)N[C@@H]3CCCN(Cc5csc6ccccc56)C3)CC4)ccc2o1 [Compound 152, N-[1-(benzo[b]thien-3-ylmethyl)-3(R)-piperidinyl]-1,4,6,7-tetrahydro-3-(2-methyl-5-benzoxazolyl)-5H-pyrazolo[4,3-c]pyridine-5-carboxamide]"
2,0.021 to 0.1 µM,"O=C(N[C@@H]1CCCN(CCc2ccccc2)C1)N1CCc2[nH]nc(-c3ccncc3)c2C1 [Compound 173, 1,4,6,7-tetrahydro-N-[1-(2-phenylethyl)-3(R)-piperidinyl]-3-(4-pyridinyl)-5H-pyrazolo[4,3-c]pyridine-5-carboxamide]"
3,0.101 to 1 µM,Cc1cc(-c2n[nH]c3c2CN(C(=O)N[C@@H]2CCCN(Cc4ccnc5ccccc45)C2)CC3)ccn1 [Compound 98]
4,0.101 to 1 µM,"Cc1nc2ccc(-c3n[nH]c4c3CN(C(=O)N[C@@H]3CCCN(Cc5c(F)cccc5F)C3)CC4)cc2o1 [Compound 187, N-[1-[(2,6-difluorophenyl)methyl]-3(R)-piperidinyl]-1,4,6,7-tetrahydro-3-(2-methyl-6-benzoxazolyl)-5H-pyrazolo[4,3-c]pyridine-5-carboxamide]"
5,0.101 to 1 µM,"O=C(N[C@@H]1CCCN(Cc2ncc[nH]2)C1)N1CCc2[nH]nc(-c3ccncc3)c2C1 [Compound 63, 1,4,6,7-tetrahydro-N-[1-(1H-imidazoL-2-ylmethyl)-3(R)-piperidinyl]-3-(4-pyridinyl)-5H-pyrazolo[4,3-c]pyridine-5-carboxamide]"
6,0.021 to 0.1 µM,"Cc1cc(-c2n[nH]c3c2CN(C(=O)NC2CC(C)CN(Cc4ccccc4Cl)C2)CC3)ccn1 (stereo not drawn) [Compound 103, N-[1-[(2-chlorophenyl)methyl]-5-methyl-3-piperidinyl]-1,4,6,7-tetrahydro-3-(2-methyl-4-pyridinyl)-5H-pyrazolo[4,3-c]pyridine-5-carboxamide]"
7,< 0.02 µM,"Cc1cc(-c2n[nH]c3c2CN(C(=O)N[C@@H]2CCN(Cc4csc5ccccc45)C2)CC3)ccn1 [Compound 120, N-[1-(benzo[b]thien-3-ylmethyl)-3(R)-pyrrolidinyl]-1,4,6,7-tetrahydro-3-(2-methyl-4-pyridinyl)-5H-pyrazolo[4,3-c]pyridine-5-carboxamide]"
8,1 to 100 µM,"CCn1cc(Cl)c(NC(=O)N2CCc3[nH]nc(-c4ccncc4)c3C2)n1 [Compound 42, N-(4-chloro-1-ethyl-1H-pyrazol-3-yl)-1,4,6,7-tetrahydro-3-(4-pyridinyl)-5H-pyrazolo[4,3-c]pyridine-5-carboxamide]"
9,0.021 to 0.1 µM,"Cc1nc2cc(-c3n[nH]c4c3CN(C(=O)N[C@@H]3CCCN(Cc5cn(C)c6ccccc56)C3)CC4)ccc2o1 [Compound 148, 1,4,6,7-tetrahydro-3-(2-methyl-5-benzoxazolyl)-N-[1-[(1-methyl-1H-indol-3-yl)methyl]-3(R)-piperidinyl]-5H-pyrazolo[4,3-c]pyridine-5-carboxamide]"
10,0.021 to 0.1 µM,"COc1ccc(-c2n[nH]c3c2CN(C(=O)N[C@@H]2CCCN(Cc4c(C)cccc4C)C2)CC3)cc1F [Compound 124, N-[1-[(2,6-dimethylphenyl)-methyl]-3(R)-piperidinyl]-3-(3-fluoro-4-methoxyphenyl)-1,4,6,7-tetrahydro-5H-pyrazolo[4,3-c]pyridine-5-carboxamide]"
11,0.101 to 1 µM,"O=C(Cc1ccccc1-c1cccnc1)N1CCc2[nH]nc(-c3ccncc3)c2C1 [Compound 33, 4,5,6,7-tetrahydro-3-(4-pyridinyl)-5-[[2-(3-pyridinyl)phenyl]acetyl]-1H-pyrazolo[4,3-c]pyridine]"
12,0.101 to 1 µM,"CC(C)(C)OC(=O)N1C[C@@H](NC(=O)N2CCc3[nH]nc(-c4ccncc4)c3C2)[C@H](c2cccc(-c3ccccc3)c2)C1 (racemic) [Compound 165, 1,1-dimethylethyl trans-3-[1,1′-biphenyl]-3-yl-4-[[[1,4,6,7-tetrahydro-3-(4-pyridinyl)-5H-pyrazolo[4,3-c]pyridin-5-yl]carbonyl]amino]-1-pyrrolidinecarboxylate]"
13,0.021 to 0.1 µM,"COc1ccccc1CN1CCC[C@@H](NC(=O)N2CCc3[nH]nc(-c4ccncc4)c3C2)C1 [Compound 70, 1,4,6,7-tetrahydro-N-[1-[(2-methoxyphenyl)methyl]-3(R)-piperidinyl]-3-(4-pyridinyl)-5H-pyrazolo[4,3-c]pyridine-5-carboxamide]"
14,0.021 to 0.1 µM,"Cc1cc(-c2n[nH]c3c2CN(C(=O)NC2CC(C)CN(Cc4c(C)cccc4C)C2)CC3)ccn1 (stereo not drawn) [Compound 94, N-[1-[(2,6-dimethylphenyl)-methyl]-5-methyl-3-piperidinyl]-1,4,6,7-tetrahydro-3-(2-methyl-4-pyridinyl)-5H-pyrazolo[4,3-c]pyridine-5-carboxamide]"
15,0.021 to 0.1 µM,"O=C(N[C@@H]1CCCN(Cc2c(F)cccc2F)C1)N1CCc2[nH]nc(-c3ccc4ncccc4c3)c2C1 [Compound 130, N-[1-[(2,6-difluorophenyl)-methyl]-3(R)-piperidinyl]-1,4,6,7-tetrahydro-3-(6-quinolinyl)-5H-pyrazolo[4,3-c]pyridine-5-carboxamide]"
16,0.101 to 1 µM,"COc1cccc(F)c1CN1[C@H]2CC[C@H](NC(=O)N3CCc4[nH]nc(-c5ccnc(C)c5)c4C3)[C@@H]1CC2 [Compound 160, N-[endo-8-[(2-fluoro-6-methoxyphenyl)methyl]-8-azabicyclo[3.2.1]oct-2-yl]-1,4,6,7-tetrahydro-3-(2-methyl-4-pyridinyl)-5H-pyrazolo[4,3-c]pyridine-5-carboxamide]"
17,1 to 100 µM,"COc1ncccc1NC(=O)C1(C)CCc2[nH]nc(-c3ccncc3)c2C1 (stereo not drawn) [Compound 18, 4,5,6,7-tetrahydro-N-(2-methoxy-3-pyridinyl)-5-methyl-3-(4-pyridinyl)-1H-indazole-5-carboxamide]"
18,0.101 to 1 µM,"O=C(N[C@H]1CNC[C@@H]1c1ccccc1)[C@@H]1CCc2[nH]nc(-c3ccncc3)c2C1 (racemic) [Compound 12, 4,5,6,7-tetrahydro-N-(trans-4-phenyl-3-pyrrolidinyl)-3-(4-pyridinyl)-1H-indazole-5(R)-carboxamide]"
19,0.101 to 1 µM,"Cc1cc(-c2n[nH]c3c2CN(C(=O)NC2CC(C)CN(Cc4cnc5ccccc5c4)C2)CC3)ccn1 (stereo not drawn) [Compound 96, 1,4,6,7-tetrahydro-3-(2-methyl-4-pyridinyl)-N-[5-methyl-1-(3-quinolinylmethyl)-3-piperidinyl]-5H-pyrazolo[4,3-c]pyridine-5-carboxamide]"
20,< 0.02 µM,"Cc1nc2cc(-c3n[nH]c4c3CN(C(=O)N[C@@H]3CCCN(Cc5ccc6ccccc6c5)C3)CC4)ccc2o1 [Compound 154, 1,4,6,7-tetrahydro-3-(2-methyl-5-benzoxazolyl)-N-[1-(2-naphthalenylmethyl)-3(R)-piperidinyl]-5H-pyrazolo[4,3-c]pyridine-5-carboxamide]"
21,0.101 to 1 µM,"Cc1cc(-c2n[nH]c3c2CN(C(=O)N[C@H]2CC[C@H]4CC[C@@H]2N4Cc2ccccc2F)CC3)ccn1 [Compound 166, N-[endo-8-[(2-fluorophenyl)methyl]-8-azabicyclo[3.2.1]oct-2-yl]-1,4,6,7-tetrahydro-3-(2-methyl-4-pyridinyl)-5H-pyrazolo[4,3-c]pyridine-5-carboxamide]"
22,< 0.02 µM,"Cc1cccc(C)c1CN1CCC[C@@H](NC(=O)N2CCc3[nH]nc(-c4ccc5c(cnn5C)c4)c3C2)C1 [Compound 127, N-[1-[(2,6-dimethylphenyl)-methyl]-3(R)-piperidinyl]-1,4,6,7-tetrahydro-3-(1-methyl-1H-inclazol-5-yl)-5H-pyrazolo[4,3-c]pyridine-5-carboxamide]"
23,1 to 100 µM,"O=C(Cc1cccs1)N1CCc2[nH]nc(-c3ccncc3)c2C1 [Compound 7, 4,5,6,7-tetrahydro-3-(4-pyridinyl)-5-(2-thienylacetyl)-1H-pyrazolo[4,3-c]pyridine]"
24,0.021 to 0.1 µM,"COc1ccc(-c2n[nH]c3c2CN(C(=O)N[C@@H]2CCCN(Cc4c(F)cccc4F)C2)CC3)cc1F [Compound 131, N-[1-[(2,6-difluorophenyl)-methyl]-3(R)-piperidinyl]-3-(3-fluoro-4-methoxyphenyl)-1,4,6,7-tetrahydro-5H-pyrazolo[4,3-c]pyridine-5-carboxamide]"
25,0.101 to 1 µM,"O=C(NC1CC[C@H]2CC[C@@H]1N2Cc1c(F)cccc1F)N1CCc2[nH]nc(-c3ccc4nccn4c3)c2C1 (stereo in doubt) [Compound 182, N-[8-[(2,6-difluorophenyl)methyl]-8-azabicyclo[3.2.1]oct-2-yl]-1,4,6,7-tetrahydro-3-imidazo[1,2-a]pyridin-6-yl-5H-pyrazolo[4,3-c]pyridine-5-carboxamide]"
26,0.101 to 1 µM,"CCC1(NC(=O)N2CCc3[nH]nc(-c4ccnc(C)c4)c3C2)CCCN(Cc2c(F)cccc2F)C1 (stereo not drawn) [Compound 92, N-[1-[(2,6-difluorophenyl)-methyl]-3-ethyl-3-piperidinyl]-1,4,6,7-tetrahydro-3-(2-methyl-4-pyridinyl)-5H-pyrazolo[4,3-c]pyridine-5-carboxamide]"
27,0.101 to 1 µM,"O=C(Cc1cccnc1)N1CCc2[nH]nc(-c3ccncc3)c2C1 [Compound 25, 4,5,6,7-tetrahydro-3-(4-pyridinyl)-5-(3-pyridinylacetyl)-1H-pyrazolo[4,3-c]pyridine]"
28,0.021 to 0.1 µM,"CC1CC(NC(=O)N2CCc3[nH]nc(-c4ccncc4)c3C2)CN(Cc2ccccc2F)C1 (stereo not drawn) [Compound 52, N-[1-[(2-fluorophenyl)-methyl]-5-methyl-3-piperidinyl]-1,4,6,7-tetrahydro-3-(4-pyridinyl)-5H-pyrazolo[4,3-c]pyridine-5-carboxamide]"
29,0.021 to 0.1 µM,"COc1ccc2ccccc2c1CN1CCC[C@@H](NC(=O)N2CCc3[nH]nc(-c4ccnc(C)c4)c3C2)C1 [Compound 97, 1,4,6,7-tetrahydro-N-[1-[(2-Methoxy-1-naphthalenyl)-methyl]-3(R)-piperidinyl]-3-(2-methyl-4-pyridinyl)-5H-pyrazolo[4,3-c]pyridine-5-carboxamide]"

# Same assay, conditions: Table 2, 30 μM ATP
row,IC50,SMILES
1,0.00116 µM,"O=C(N[C@H]1CNC[C@@H]1c1ccccc1)N1CCc2[nH]nc(-c3ccncc3)c2C1 (racemic) [Compound 37, 1,4,6,7-tetrahydro-N-(trans-4-phenyl-3-pyrrolidinyl)-3-(4-pyridinyl)-5H-pyrazolo[4,3-c]pyridine-5-carboxamide]"

# — patent US9242981B2, “Fused pyrazole derivatives as novel ERK inhibitors” (Merck Sharp & Dohme Corp., priority 2010, dated 2016)
